Laboratory results from patent US20230382889A1 (Volastra Therapeutics, Inc., priority 2022, published 2023).

Molecular target: hKIF18A (1-374) (Homo sapiens (Human), UniProt Q8NI77)
Assay: Inhibition of KIF18A microtubule-dependent ATPase activity (ADP-Glo)
Format: biochemical
Details: 4 nM hKIF18A (1-374)
Procedure, shortened: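 Reaction was started with pre-formed microtubules and ATP (0.2 mg/mL and 2.0 mM in the added mix) and run 60 min at 28 °C. ADP was read by ADP-Glo luminescence, and IC50 came from a four-parameter fit of % inhibition.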

Chain of hKIF18A (1-374) (Q8NI77 1-374): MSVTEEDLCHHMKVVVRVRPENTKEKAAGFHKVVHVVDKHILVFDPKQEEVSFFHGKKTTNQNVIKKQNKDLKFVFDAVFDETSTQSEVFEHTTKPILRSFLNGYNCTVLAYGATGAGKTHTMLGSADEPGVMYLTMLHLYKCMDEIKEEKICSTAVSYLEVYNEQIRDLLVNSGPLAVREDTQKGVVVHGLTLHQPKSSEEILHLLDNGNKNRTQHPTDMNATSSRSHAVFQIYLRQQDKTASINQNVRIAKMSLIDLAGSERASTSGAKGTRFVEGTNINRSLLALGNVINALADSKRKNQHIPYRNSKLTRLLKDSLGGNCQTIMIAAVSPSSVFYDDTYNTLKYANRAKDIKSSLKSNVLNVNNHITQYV

SMILES | IC50
O=S(=O)(CCO)Nc1ccc(-c2nnc(-c3cccc(N4CCC(F)(F)CC4)n3)[nH]2)c(N2CCC3(CC2)CC3)c1 [Compound 8, N-(4-(5-(6-(4,4-difluoropiperidin-1-yl)pyridin-2-yl)-4H-1,2,4-triazol-3-yl)-3-(6-azaspiro[2.5]octan-6-yl)phenyl)-2-hydroxyethane-1-sulfonamide] | 0.0051 µM
CC(C)(C)NS(=O)(=O)c1cccc(-c2cn(-c3ccc(NS(C)(=O)=O)cc3N3CCC4(CC3)CC4)nn2)c1 [Compound 12, N-(tert-butyl)-3-(1-(4-(methylsulfonamido)-2-(6-azaspiro[2.5]octan-6-yl)phenyl)-1H-1,2,3-triazol-4-yl)benzenesulfonamide] | 0.0091 µM
CS(=O)(=O)Nc1ccc(-c2nnc(-c3cccc4c3OCCC4)[nH]2)c(N2CCC3(CC2)CC3)c1 [Compound 3, N-(4-(5-(chroman-8-yl)-4H-1,2,4-triazol-3-yl)-3-(6-azaspiro[2.5]octan-6-yl)phenyl)methanesulfonamide] | 0.28 µM
CS(=O)(=O)Nc1ccc(-c2cnc(-c3cccc(N4CCOCC4)n3)[nH]2)c(N2CCC3(CC2)CC3)c1 [Compound 27, N-(4-(2-(6-morpholinopyridin-2-yl)-1H-imidazol-5-yl)-3-(6-azaspiro[2.5]octan-6-yl)phenyl)methanesulfonamide] | > 3 µM
Cc1cc(-c2cn(-c3ccc(NS(=O)(=O)CCO)cc3N3CCC4(CC3)CC4)nn2)nc(CN2CC(F)(F)C2)n1 [Compound 152, N-(4-(4-(2-((3,3-difluoroazetidin-1-yl)methyl)-6-methylpyrimidin-4-yl)-1H-1,2,3-triazol-1-yl)-3-(6-azaspiro[2.5]octan-6-yl)phenyl)-2-hydroxyethane-1-sulfonamide] | 0.014 µM
CC(CO)S(=O)(=O)Nc1ccc(-n2cc(-c3cccc(N4CCC(F)(F)CC4)n3)nn2)c(N2CCC3(CC2)CC3)c1 (centres unmarked) [Compound 85, N-(4-(4-(6-(4,4-difluoropiperidin-1-yl)pyridin-2-yl)-1H-1,2,3-triazol-1-yl)-3-(6-azaspiro[2.5]octan-6-yl)phenyl)-1-hydroxypropane-2-sulfonamide] | 0.011 µM
O=S(=O)(CCO)Nc1ccc(-n2cc(-c3csc(N4CCC(F)(F)CC4)n3)nn2)c(N2CCCCC2)c1 [Compound 86, N-(4-(4-(2-(4,4-difluoropiperidin-1-yl)thiazol-4-yl)-1H-1,2,3-triazol-1-yl)-3-(piperidin-1-yl)phenyl)-2-hydroxyethane-1-sulfonamide] | 0.027 µM
CCS(=O)(=O)Nc1ccc(-n2cc(-c3ccc(F)c(S(=O)(=O)NC(C)(C)C)c3)nn2)c(N2CCC3(CC2)CC3)c1 [Compound 120, N-(tert-butyl)-5-(1-(4-(ethylsulfonamido)-2-(6-azaspiro[2.5]octan-6-yl)phenyl)-1H-1,2,3-triazol-4-yl)-2-fluorobenzenesulfonamide] | 0.019 µM
CS(=O)(=O)Nc1ccc(-n2cc(-c3cccc(N4CCC(F)(F)CC4)n3)nn2)c(N2CC3CC(C3)C2)c1 [Compound 53, N-(3-(3-azabicyclo[3.1.1]heptan-3-yl)-4-(4-(6-(4,4-difluoropiperidin-1-yl)pyridin-2-yl)-1H-1,2,3-triazol-1-yl)phenyl)methanesulfonamide] | 0.043 µM
O=S(=O)(CCO)Nc1ccc(-n2cc(-c3ccc(C(O)C4CCCC4)o3)nn2)c(N2CCC3(CC2)CC3)c1 (single isomer, unassigned) [Compound 51a] | 0.0024 µM
O=S(=O)(CCO)Nc1ccc(-n2cc(-c3cc(CO)nc(N4CCC(F)(F)CC4)n3)nn2)c(N2CCC3(CC2)CC3)c1 [Compound 160, N-(4-(4-(2-(4,4-difluoropiperidin-1-yl)-6-(hydroxymethyl)pyrimidin-4-yl)-1H-1,2,3-triazol-1-yl)-3-(6-azaspiro[2.5]octan-6-yl)phenyl)-2-hydroxyethane-1-sulfonamide] | 0.0044 µM
CCS(=O)(=O)Nc1ccc(-n2cc(-c3c[n+]([O-])cc(N4CCC(F)(F)CC4)n3)nn2)c(N2CCC3(CC2)CC3)c1 [Compound 146, 3-(4,4-difluoropiperidin-1-yl)-5-(1-(4-(ethylsulfonamido)-2-(6-azaspiro[2.5]octan-6-yl)phenyl)-1H-1,2,3-triazol-4-yl)pyrazine 1-oxide] | 0.0044 µM
O=S(=O)(CCO)Nc1ccc(-c2cn(-c3ccc(F)c(N4CCC(F)(F)CC4)n3)nn2)c(N2CCC3(CC2)CC3)c1 [Compound 140, N-(4-(1-(6-(4,4-difluoropiperidin-1-yl)-5-fluoropyridin-2-yl)-1H-1,2,3-triazol-4-yl)-3-(6-azaspiro[2.5]octan-6-yl)phenyl)-2-hydroxyethane-1-sulfonamide] | 0.018 µM
CC1CCN(c2cc(NS(=O)(=O)CCO)ccc2-c2cn(-c3ccc(F)c(N4CCC(F)(F)CC4)n3)nn2)CC1 [Compound 141, N-(4-(1-(6-(4,4-difluoropiperidin-1-yl)-5-fluoropyridin-2-yl)-1H-1,2,3-triazol-4-yl)-3-(4-methylpiperidin-1-yl)phenyl)-2-hydroxyethane-1-sulfonamide] | 0.017 µM
CC1CCN(c2cc(NS(=O)(=O)CCO)ccc2-n2cc(-c3cncc(N4CCC(F)(F)CC4)n3)nn2)CC1 [Compound 143, N-(4-(4-(6-(4,4-difluoropiperidin-1-yl)pyrazin-2-yl)-1H-1,2,3-triazol-1-yl)-3-(4-methylpiperidin-1-yl)phenyl)-2-hydroxyethane-1-sulfonamide] | 0.0055 µM
O=S(=O)(CCO)Nc1ccc(-n2cc(-c3ccc(F)c(N4CCCCO4)n3)nn2)c(N2CCC3(CC2)CC3)c1 [Compound 154, N-(4-(4-(5-fluoro-6-(1,2-oxazinan-2-yl)pyridin-2-yl)-1H-1,2,3-triazol-1-yl)-3-(6-azaspiro[2.5]octan-6-yl)phenyl)-2-hydroxyethane-1-sulfonamide] | 0.0071 µM
Cc1cc(N2CCC(F)(F)CC2)nc(-n2cc(-c3ccc(NS(=O)(=O)C4CC4)cc3N3CCC4(CC3)CC4)nn2)c1 [Compound 105, N-(4-(1-(6-(4,4-difluoropiperidin-1-yl)-4-methylpyridin-2-yl)-1H-1,2,3-triazol-4-yl)-3-(6-azaspiro[2.5]octan-6-yl)phenyl)cyclopropanesulfonamide] | 0.075 µM
Cc1cc(-c2cn(-c3ccc(NS(=O)(=O)CCO)cc3N3CCC4(CC3)CC4)nn2)nc(N2CCCC2)n1 [Compound 98, 2-hydroxy-N-(4-(4-(6-methyl-2-(pyrrolidin-1-yl)pyrimidin-4-yl)-1H-1,2,3-triazol-1-yl)-3-(6-azaspiro[2.5]octan-6-yl)phenyl)ethane-1-sulfonamide] | 0.012 µM
CCOC(=O)CS(=O)(=O)Nc1ccc(-c2nnc(-c3cccc(N4CCC(F)(F)CC4)n3)[nH]2)c(N2CCC3(CC2)CC3)c1 [Compound 7, ethyl 2-(N-(4-(5-(6-(4,4-difluoropiperidin-1-yl)pyridin-2-yl)-4H-1,2,4-triazol-3-yl)-3-(6-azaspiro[2.5]octan-6-yl)phenyl)sulfamoyl)acetate] | 0.083 µM
O=S(=O)(CCO)Nc1ccc(-n2cc(-c3ccn(C4CCC4)n3)nn2)c(N2CCC3(CC2)CC3)c1 [Compound 82, N-(4-(4-(1-cyclobutyl-1H-pyrazol-3-yl)-1H-1,2,3-triazol-1-yl)-3-(6-azaspiro[2.5]octan-6-yl)phenyl)-2-hydroxyethane-1-sulfonamide] | 0.06 µM
